Test results: publication PMC12275099, “VX-445 (elexacaftor) inhibits chloride secretion across human bronchial epithelial cells by directly blocking KCa3.1 channels” (PNAS Nexus, 2025)

Key:
[1] = design: method as in PMID 36371965; conditions: patients with CF, converted; cited from earlier work
[2] = tested on: BKCa (KCa1.1, KCNMA1) channels; design: method as in PMID 38954478; conditions: primary HBEs and HEK cells heterologously expressing the channel; cited from earlier work
[3] = biological target: T1, endogenous KCa3.1 in WT CFTR-expressing HBEs (Homo sapiens, UniProt O15554); assay: Whole-cell patch-clamp on undifferentiated HBEs; assay type: cell-based; conditions: VX-445 10 µM; 500 nM free Ca2+ in pipette; n = 3; read-out: inhibition of whole-cell outward potassium current
T1 construct: endogenous in cells; host or cells: undifferentiated primary human bronchial epithelial cells (WT CFTR donors)
Description: Our Isc results are consistent with VX-445 inhibiting KCa3.1 in HBEs. To directly assess this possibility, we initially carried out whole-cell patch-clamp studies on undifferentiated HBEs. […] Upon application of 10 µM VX-445, a majority of this current was inhibited, averaging 87 ± 4% (n = 3, P < 0.005; Fig. 3B). A summary of the current–voltage (I–V) relationship—normalized to cell capacitance—is shown in Fig. 3C, which also includes the whole-cell I–V in the presence of Tram-34. […] To ensure isolation of KCa3.1 currents and to more fully characterize this VX-445-dependent inhibition of KCa3.1, we utilized HEK cells heterologously expressing KCa3.1 (HEK-KCa3.1). Initially, we confirmed our results from HBEs, using whole-cell recordings, as above. […] In seven experiments, this inhibition averaged 58 ± 7% (P < 0.005). […] It is well recognized that drugs are carried to their targets in the blood bound to albumin, which ranges from 3.4 to 5.4%. Thus, we determined whether VX-445 (10 µM) would inhibit KCa3.1 expressed in HEK cells in the presence of 3.4% albumin. In four experiments, VX-445 inhibited an average of 51 ± 17% of the whole-cell KCa3.1 current, which is not different from that observed in the absence of albumin. To confirm the direct effect of VX-445 on KCa3.1, we utilized the excised, inside-out patch-clamp technique. The patch was then exposed to DCEBIO (100 µM) to further activate the channels ([34–37])—analogous to our Isc studies in HBEs. […] In three experiments, VX-445 inhibited an average of 63 ± 6% of the KCa3.1 current. Based on these experiments, we determined the apparent inhibitory constant, Ki for VX-445. For these experiments, patches were excised into saturating Ca^2+ (3 µM) to ensure maximal KCa3.1 activation. These studies were carried out in the absence of DCEBIO to eliminate the possibility that the inhibition observed was due to competition for the DCEBIO-binding site.
Primary human bronchial epithelial cells (HBEs) were collected from unused or discarded samples from the Center for Organ Recovery and Education via the University of Pittsburgh Pulmonary, Allergy, Critical Care, and Sleep Medicine Lung Biobank and Repository. All experimental procedures involving the use of HBEs were approved by the institutional review board (IRB STUDY19090084) and the Committee for Oversight of Research and Clinical Training Involving Decedents (CORID number 451) at the University of Pittsburgh. At all times, authors were blind to the identity of HBE donors. HBEs were cultured using the Vertex method ([72]). Studies were carried out on WT CFTR HBEs from 11 ([13]) donors and homozygous F508del/F508del CFTR HBEs from five ([5]) separate donors. […]

[4] = tested on: preconstricted mesenteric artery; design: method as in PMID 38954478; conditions: cited from earlier work

Compound: Cc1nn(C)cc1S(=O)(=O)NC(=O)c1ccc(-n2ccc(OCC(C)(C)C(F)(F)F)n2)nc1N1C[C@@H](C)CC1(C)C [VX-445, elexacaftor]
- mean concentration in nasal brushing cell lysates, upper end [1]: ~9 µM
- effect on BKCa [2]: act as direct potentiators
- inhibition at 10 µM [3]: 87 ± 4%
- effect on preconstricted mesenteric artery [4]: capable of relaxing preconstricted mesenteric artery
